Assay results as given in paper PMC7112044 (Bioorganic Chemistry, 2008).
Where two headings read alike, the source gives them in different places.

What was measured:
SARS 3CL^pro = SARS 3CL^pro (Severe acute respiratory syndrome coronavirus, UniProt P0C6X7); assay: biochemical; type: biochemical, SARS-CoV
3CL^pro = 3CL^pro (Severe acute respiratory syndrome coronavirus, UniProt P0C6X7); type: binding, SARS-CoV
[1] = pH 7, read-out: Inhibition (100 μM)

O=C(c1ccco1)C(F)(F)c1cccc(Cl)c1 [Compound 13b, 2-(3-Chlorophenyl)-2,2-difluoro-1-(furan-2-yl)ethanone]
inhibition at 100 µM (SARS 3CL^pro; [1]): 13%

O=C(Cc1cncc(Br)c1)c1ccc(-c2ccc(Cl)cc2)o1 [Compound 11d, 2-(5-Bromopyridin-3-yl)-1-(5-(4-chlorophenyl)furan-2-yl)ethanone]
mass change in the major mass peak of 3CL^pro (3CL^pro): no mass change
change of inhibitory activity after 2 h preincubation with 3CL^pro (SARS 3CL^pro): no improved inhibitory activity

O=C(c1cccs1)C(F)c1cccnc1 (centres unmarked) [Compound 6, 2-Fluoro-2-(pyridin-3-yl)-1-(thiophen-2-yl)ethanone]
change of inhibition after 2 h preincubation with 3CL^pro (SARS 3CL^pro): no improved inhibition
inhibition at 100 µM (SARS 3CL^pro; [1]): 10%

O=C(c1cccs1)C(F)(F)c1cccnc1 [Compound 7, 2,2-difluoro-2-(pyridin-3-yl)-1-(thiophen-2-yl)ethanone]
change of inhibition after 2 h preincubation with 3CL^pro (SARS 3CL^pro): no improved inhibition
potency of inhibition relative to pyridinyl ester 1 (SARS 3CL^pro): 2- to 3 fold
inhibition at 100 µM (SARS 3CL^pro; [1]): 38%

O=C(c1ccc(-c2ccc(Cl)cc2)o1)C(F)(F)c1cncc(Br)c1 [Compound 13d, 2-(5-Bromopyridin-3-yl)-1-(5-(4-chlorophenyl)furan-2-yl)-2,2-difluoroethanone]
mass change in the major mass peak of 3CL^pro (3CL^pro): no mass change
change of inhibitory activity after 2 h preincubation with 3CL^pro (SARS 3CL^pro): no improved inhibitory activity

O=C(c1ccco1)C(F)c1cccc(Cl)c1 (centres unmarked) [Compound 12b, 2-(3-Chlorophenyl)-2-fluoro-1-(furan-2-yl)ethanone]
inhibition at 100 µM (SARS 3CL^pro; [1]): 15%

2-(5-Bromopyridin-3-yl)-2,2-difluoro-1-(furan-2- yl)ethanone [Compound 12c]
Inhibition (100 μM) (SARS 3CL^pro; pH 7): 21%

O=C(c1ccco1)C(F)(F)c1cncc(Cl)c1 [Compound 13a, 2-(5-Chloropyridin-3-yl)-2,2-difluoro-1-(furan-2-yl)ethanone]
inhibition at 100 µM (SARS 3CL^pro; [1]): 27%

O=C(c1ccco1)C(F)c1cncc(Cl)c1 (centres unmarked) [Compound 12a, 2-(5-Chloropyridin-3-yl)-2-fluoro-1-(furan-2-yl)ethanone]
inhibition at 100 µM (SARS 3CL^pro; [1]): 14%

O=C(Cc1cncc(Br)c1)c1ccco1 [Compound 11c, 2-(5-Bromopyridin-3-yl)-1-(furan-2-yl)ethanone]
inhibition at 100 µM (SARS 3CL^pro; read-out: Inhibition (100 μM)): < 10%

O=C(Cc1cncc(Br)c1)c1cc(-c2ccc(Cl)cc2)on1 [Compound 28, 2-(5-Bromopyridin-3-yl)-1-(5-(4-chlorophenyl)isoxazol-3-yl)ethanone]
inhibition at 100 µM (SARS 3CL^pro; [1]): 35%

O=C(c1ccc(-c2ccc(Cl)cc2)o1)C(F)c1cncc(Br)c1 (centres unmarked) [Compound 12d, 2-(5-Bromopyridin-3-yl)-1-(5-(4-chlorophenyl)furan-2-yl)-2-fluoroethanone]
mass change in the major mass peak of 3CL^pro (3CL^pro): no mass change
change of inhibitory activity after 2 h preincubation with 3CL^pro (SARS 3CL^pro): no improved inhibitory activity

O=C(Cc1cccc(Cl)c1)c1ccco1 [Compound 11b, 2-(3-Chlorophenyl)-1-(furan-2-yl)ethanone]
inhibition at 100 µM (SARS 3CL^pro; read-out: Inhibition (100 μM)): < 10%

O=C(Cc1cncc(Cl)c1)c1ccco1 [Compound 11a, 2-(5-Chloropyridin-3-yl)-1-(furan-2-yl)ethanone]
inhibition at 100 µM (SARS 3CL^pro; read-out: Inhibition (100 μM)): < 10%
